# Measured values taken from patent US7728131B2, “Amide derivative and medicine” (Nippon Shinyaku Co., Ltd., priority 2003, dated 2010).
# Like-named read-outs stand apart in the source and are kept apart here.
# Columns and labels:
# U937 cells = test: Cell growth inhibitory effect, U937 cells (Cell counting Kit-8, 72 hours); assay type: cell-based; conditions: Homo sapiens, U-937, BCR-ABL negative U937 cells, WST-8 absorbance
# Protocol: The plate was incubated in a CO2 incubator overnight. […] The plate was incubated in a CO2 incubator. After 72 hours, 20 μl
# K562 cells = test: Cell growth inhibitory effect, K562 cells (Cell counting Kit-8, 72 hours); conditions: for IC50: Homo sapiens, K562, 72 h, read-out: K562 cells (IC50 value: μM); for Ratio (U937 cells/K562 cells): IC50 U937 cells / IC50 K562 cells;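 on all read-outs here: Read-out is formazan absorbance at 450 nm from WST-8 reduction after a 3 h color reaction, with K562 and U937 cells grown in 96-well plates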
# Protocol: of Cell counting Kit-8 (5 mmol/l WST-8, 0.2 mmol/1 1-Methoxy PMS, 150 mmol/l NaCl) (manufactured by Dojindo) was added to each well. After reaction for color development in a CO2 incubator for 3 hours, an absorbance of formazan, generated by reduction of WST-8 was determined at 450 nm using Multi-level counter ARVOsx (manufactured by Wallac).
# K562 cells and U937 cells (purchased from American Type Culture Collection) were cultured in a RPMI-1640 medium (manufactured by Sigma) containing 10% (v/v) fetal calf serum (FCS) (manufactures by Sigma) (RPMI-1640/FCS). K562 cells and U937 cells were seeded at a density of 5000 cells/100 μl/well and 4000 cells/100 μl/well in each of 96-hole-plate (manufactured by costar), respectively. The plate was incubated in a CO2 incubator overnight. […] The resulting solution was diluted 500 times in a RPMI-1640/FCS medium and then 100 μl of the diluent was added in a well. The plate was incubated in a CO2 incubator. After 72 hours, 20 μl
# [1] = continuation of Table 3, read-out: U937 cells (IC50 value: nμM)
IC50 (U937 cells; read-out: U937 cells (IC50 value: μM)),melting point,IC50 (K562 cells),IC50 (U937 cells; [1]),SMILES,Ratio (U937 cells/K562 cells) (K562 cells)
4.6 µM,166 to 172 °C (dec.),0.0048 µM,,"CCN1CCN(Cc2ccc(C(=O)Nc3ccc(C)c(Nc4nccc(-c5cncc(Br)c5)n4)c3)cc2C(F)(F)F)CC1.Cl [Example 18, 4-(4-ethylpiperazin-1-ylmethyl)-3-trifluoromethyl-N-{3-[4-(5-bromopyridin-3-yl)pyrimidin-2-ylamino]-4-methylphenyl}benzamide hydrochloride]",958
,248 to 255 °C (dec.),0.0014 µM,10 µM,"Cc1ccc(NC(=O)c2ccc(CN3CCN(CCO)CC3)c(C(F)(F)F)c2)cc1Nc1nccc(-c2cncnc2)n1.Cl [Example 37, 4-[4-(2-hydroxyethyl)piperazin-1-ylmethyl]-3-trifluoromethyl-N-{4-methyl-3-[4-(5-pyrimidinyl)pyrimidin-2-ylamino]phenyl}benzamide hydrochloride]",7143
,176 to 182 °C (dec.),0.0039 µM,4.4 µM,"Cc1ccc(NC(=O)c2ccc(CN3CCNCC3)c(C(F)(F)F)c2)cc1Nc1nccc(-c2cncc(Br)c2)n1.Cl [Example 40, 4-(1-piperazinylmethyl)-3-trifluoromethyl-N-{3-[4-(5-bromopyridin-3-yl)pyrimidin-2-ylamino]-4-methylphenyl}benzamide hydrochloride]",1128
,205 to 208 °C,0.0031 µM,15 µM,"Cc1ccc(NC(=O)c2ccc(CN3CCNC(C(N)=O)C3)c(C(F)(F)F)c2)cc1Nc1nccc(-c2cncnc2)n1.Cl (centres unmarked) [Example 45, 4-(3-carbamoylpiperazin-1-ylmethyl)-3-trifluoromethyl-N-{4-methyl-3-[4-(5-pyrimidinyl)pyrimidin-2-ylamino]phenyl}benzamide hydrochloride]",4839
,203 to 208 °C,0.0046 µM,16 µM,"Cc1ccc(NC(=O)c2ccc(CN3CCN(C)C(C(N)=O)C3)c(C(F)(F)F)c2)cc1Nc1nccc(-c2cncnc2)n1.Cl (centres unmarked) [Example 50, 4-(3-carbamoyl-4-methylpiperazin-1-ylmethyl)-3-trifluoromethyl-N-{4-methyl-3-[4-(5-pyrimidinyl)pyrimidin-2-ylamino]phenyl}benzamide hydrochloride]",3478
,142 to 152 °C (dec.),0.0096 µM,16 µM,"Cc1ccc(NC(=O)c2ccc(CN3CC(CN(C)C)C3)c(C(F)(F)F)c2)cc1Nc1nccc(-c2cncnc2)n1.Cl [Example 54, 4-[3-(dimethylaminomethyl)azetidin-1-ylmethyl]-3-trifluoromethyl-N-{4-methyl-3-[4-(5-pyrimidinyl)pyrimidin-2-ylamino]phenyl}benzamide hydrochloride]",1667
,254 to 258 °C,0.0046 µM,4.4 µM,"Cc1ccc(NC(=O)c2ccc(CN3CCN[C@H](C)C3)c(C(F)(F)F)c2)cc1Nc1nccc(-c2cncnc2)n1.Cl [Example 56, (+)-4-((R)-3-methylpiperazin-1-ylmethyl)-3-trifluoromethyl-N-{4-methyl-3-[4-(5-pyrimidinyl)pyrimidin-2-ylamino]phenyl}benzamide hydrochloride]",957
,200 to 202 °C,0.0058 µM,5.6 µM,"CCN(CC)[C@H]1CCN(Cc2ccc(C(=O)Nc3ccc(C)c(Nc4nccc(-c5cncnc5)n4)c3)cc2C(F)(F)F)C1.Cl [Example 57, (−)-4-[(S)-3-(N,N-diethylamino)pyrrolidin-1-ylmethyl]-3-trifluoromethyl-N-{4-methyl-3-[4-(5-pyrimidinyl)pyrimidin-2-ylamino]phenyl}benzamide hydrochloride]",966
,168 to 171 °C,0.0047 µM,9.4 µM,"Cc1ccc(NC(=O)c2ccc(CN3CC[C@H](N4CCCC4)C3)c(C(F)(F)F)c2)cc1Nc1nccc(-c2cncnc2)n1.Cl [Example 58, (−)-4-[(S)-3-(1-pyrrolidinyl)pyrrolidin-1-ylmethyl]-3-trifluoromethyl-N-{4-methyl-3-[4-(5-pyrimidinyl)pyrimidin-2-ylamino]phenyl}benzamide hydrochloride]",2000
,188 to 193 °C,0.005 µM,4 µM,"Cc1ccc(NC(=O)c2ccc(CN3C[C@@H](N(C)C)C[C@H]3C)c(C(F)(F)F)c2)cc1Nc1nccc(-c2cncnc2)n1.Cl [Example 60, (−)-4-[(2R,4S)-4-(dimethylamino)-2-methylpyrrolidin-1-ylmethyl]-3-trifluoromethyl-N-{4-methyl-3-[4-(5-pyrimidinyl)pyrimidin-2-ylamino]phenyl}benzamide hydrochloride]",800
,193 to 199 °C,0.0014 µM,1.6 µM,"Cc1ccc(NC(=O)c2ccc(CN3CCC[C@H](N)C3)c(C(F)(F)F)c2)cc1Nc1nccc(-c2cncnc2)n1.Cl [Example 62, (+)-4-((S)-3-aminopiperidinomethyl)-3-trifluoromethyl-N-{4-methyl-3-[4-(5-pyrimidinyl)pyrimidin-2-ylamino]phenyl}benzamide hydrochloride]",1143
,195 to 198 °C,0.0043 µM,3.7 µM,"Cc1ccc(NC(=O)c2ccc(CN3CCC[C@H](N(C)C)C3)c(C(F)(F)F)c2)cc1Nc1nccc(-c2cncnc2)n1.Cl [Example 64, (+)-4-[(S)-3-(dimethylamino)piperidinomethyl]-3-trifluoromethyl-N-{4-methyl-3-[4-(5-pyrimidinyl)pyrimidin-2-ylamino]phenyl}benzamide hydrochloride]",860

# More lines, now with the values behind:
SMILES,IC50 (U937 cells; read-out: U937 cells (IC50 value: μM)),melting point,IC50 (K562 cells),IC50 (U937 cells; [1]),Ratio (U937 cells/K562 cells) (K562 cells)
"Cc1ccc(NC(=O)c2ccc(CN3CCN(C)CC3)c(Cl)c2)cc1Nc1nccc(-c2cncnc2)n1.Cl [Example 20, 3-chloro-4-(4-methylpiperazin-1-ylmethyl)-N-{4-methyl-3-[4-(5-pyrimidinyl)pyrimidin-2-ylamino]phenyl}benzamide hydrochloride]",,197 to 200 °C,0.0026 µM,29 µM,11154
"Cc1ccc(NC(=O)c2ccc(CN3CCN(C)CC3)c(C(F)(F)F)c2)cc1Nc1cc(-c2cncnc2)ccn1.Cl [Example 23, 4-(4-methylpiperazin-1-ylmethyl)-3-trifluoromethyl-N-{4-methyl-3-[4-(5-primidinyl)pyridin-2-ylamino]phenyl}benzamide hydrochloride]",,203 to 206 °C (dec.),0.0011 µM,5 µM,4545
"CCN1CCN(Cc2ccc(C(=O)Nc3ccc(C)c(Nc4cc(-c5cncnc5)ccn4)c3)cc2C(F)(F)F)CC1.Cl [Example 25, 4-(4-ethylpiperazin-1-ylmethyl)-3-trifluoromethyl-N-{4-methyl-3-[4-(5-pyrimidinyl)pyridin-2-ylamino]phenyl}benzamide hydrochloride]",,254 to 256 °C (dec.),0.0018 µM,3.8 µM,2111
"CCN1CCN(Cc2ccc(C(=O)Nc3ccc(C)c(Nc4cc(-c5cccnc5)ccn4)c3)cc2C(F)(F)F)CC1.Cl [Example 27, 4-(4-ethylpiperazin-1-ylmethyl)-3-trifluoromethyl-N-{4-methyl-3-[4-(3-pyridyl)pyridin-2-ylamino]phenyl}benzamide hydrochloride]",,230 to 235 °C (dec.),0.0025 µM,2.6 µM,1040
"Cc1ccc(NC(=O)c2ccc(CN3CCN(C)CC3)c(C(F)(F)F)c2)cc1Nc1cc(-c2cccnc2)ncn1.Cl [Example 31, 4-(1-methylpiperazin-4-ylmethyl)-3-trifluoromethyl-N-{4-methyl-3-[6-(3-pyridyl)pyrimidin-4-ylamino]phenyl}benzamide hydrochloride]",,190 to 194 °C (dec.),0.0069 µM,2.1 µM,304
"Cc1ccc(NC(=O)c2ccc(CN3CCN(C)CC3)c(C(F)(F)F)c2)cc1Nc1cc(-c2cncnc2)ncn1.Cl [Example 33, 4-(1-methylpiperazin-4-ylmethyl)-3-trifluoromethyl-N-{4-methyl-3-[6-(5-pyrimidinyl)pyrimidin-4-ylamino]phenyl}benzamide hydrochloride]",,203 to 207 °C (dec.),0.0084 µM,11 µM,1310
"Cc1ccc(NC(=O)c2ccc(CN3CCN(CCF)CC3)c(C(F)(F)F)c2)cc1Nc1nccc(-c2cncnc2)n1.Cl [Example 35, 4-[4-(2-fluoroethyl)piperazin-1-ylmethyl]-3-trifluoromethyl-N-{4-methyl-3-[4-(5 yrimidinyl)pyrimidin-2-ylamino]phenyl}benzamide hydrochloride]",,213 to 233 °C (dec.),0.0034 µM,11 µM,3235
"Cc1ccc(NC(=O)c2ccc(CN3CCNCC3)c(C(F)(F)F)c2)cc1Nc1cc(-c2cccnc2)ccn1.Cl [Example 42, 4-(1-piperazinylmethyl)-3-trifluoromethyl-N-{4-methyl-3-[4-(3-pyridyl)pyridin-2-ylamino]phenyl}benzamide hydrochloride]",,190 to 195 °C (dec.),0.0068 µM,1.4 µM,206
